Results: ChEMBL document CHEMBL3507680, “University of Dundee, Gates Library screen for HepG2 cell viability”

Test: Human HepG2 cell viability assay in 384 well format
Assay type: toxicity, cell-based
Set-up: dose 125 nL, time 70.5 hour; cytotoxicity at 70.5 h: concentration not given beside the values
Settings: HepG2 cells, read-out: Inhibition

SMILES	cytotoxicity at 70.5 h
CCC(O)CN1CCN(C(=O)c2cccc3c2OCC(=O)N3)CC1 (centres undefined)	27.7%
O=C(Cc1ccc(-n2cnnn2)cc1)Nc1cnn(CC(F)F)c1	-15.7%
CSCC(CCO)Nc1nc(C(F)F)nc2ccccc12 (centres undefined)	-7.1%
O=C(O)CCc1ccc(S(=O)(=O)Nc2cnn(CC(F)(F)F)c2)cc1	-5.48%
CC(C)NC1CCN(CCc2ccc3c(c2)CCO3)CC1	9.93%
CC(=O)Nc1nc(CNc2ccccc2CCC(F)(F)F)cs1	-12%
CC(C)n1nnnc1-c1ccc(NC(=O)C(C)(C)C#N)cc1F	4.99%
CCC(CO)Nc1nc(C(F)F)nc2ccccc12 (centres undefined)	-11.3%
Cc1ccccc1-n1nccc1NC(=O)CCOC(C)C	11.4%
CCOCCOC(C)C(=O)Nc1ccnn1-c1ccccc1C (centres undefined)	-4.2%
O=C(c1cc(C2CCCC2)no1)N1CCCCC1	-15.8%
NC(c1ccccc1)c1ccc(OC(F)F)cc1 (centres undefined)	6.42%
CC(C)c1noc(CCC(=O)Nc2cc(F)ccc2F)n1	12.9%
CC(C)c1noc(C[S+]([O-])CC(=O)Nc2cc(F)ccc2F)n1 (centres undefined)	-3.52%
Cc1ccc(NC(=O)C2CCCN2C(=O)C2CC2)nc1 (centres undefined)	-3.51%
O=C(CCOc1ccccc1)NS(=O)(=O)Cc1ccccc1	-5.31%
COCCNC(=O)CN1CCN(c2nc3cc(C)ccc3o2)CC1	-1.86%
Cc1ccc(CN(C)C(=O)NCC(=O)NC(C)(C)C)s1	-3.18%
O=C1CC(C(=O)Nc2nnc(-c3ccoc3)[nH]2)c2ccccc2N1 (centres undefined)	0.202%
O=C(c1cscn1)N(CCCO)S(=O)(=O)c1cccs1	0.658%
CCNC(=O)NC1CCC(Oc2ccccc2C#N)CC1 (centres undefined)	9.88%
COc1cc(Br)cc(CNC2CCCNC2=O)c1O (centres undefined)	2.96%
Cc1ncc(S(=O)(=O)Nc2ccnn2C2CCCCC2)[nH]1	-1.01%
COC(C)c1cccc(NCc2cccs2)c1 (centres undefined)	-3.58%

SMILES	cytotoxicity at 70.5 h
CN(C)C1(C(=O)NC2CCC(Oc3ccccc3C#N)CC2)CCC1 (centres undefined)	-4.33%
COCCN1CCN(CC2(O)CCCCC2)CC1	-0.488%
Cc1cc(C2CCCN(C(=O)COc3ccc(F)cc3)C2)n[nH]1 (centres undefined)	-8.58%
COCCN(C)CC1CCCN1S(=O)(=O)c1cc(C)oc1C (centres undefined)	-4.11%
Cc1cc(C)n(CC2CCN(CC(O)Cn3cccn3)CC2)n1 (centres undefined)	-1.67%
Cc1cc(C2CCCN(Cc3noc(Cc4ccccc4)n3)C2)n[nH]1 (centres undefined)	-1%
Cc1cc(C)c2cc(C(=O)N3CCNC(=O)C3)[nH]c2c1	-8%
CCCn1nnnc1COC(=O)C1COc2ccc(Cl)cc2C1 (centres undefined)	-5.74%
CC(C(=O)Nc1nccs1)N(C)Cc1cccc(C#N)c1 (centres undefined)	-11.6%
CCOc1ccccc1CCC(=O)Nc1c(C)nn(C)c1C	14.5%
COC1CCN(c2ccc(F)cc2CN(C)C(=O)c2cc[nH]n2)CC1	-13.3%
Cc1nnc2n1CCN(C(=O)C(C)Oc1ccc(C#N)cc1)C2 (centres undefined)	-12.4%
CCN(C(=O)CS(=O)(=O)c1cc(OC)c(OC)cc1C)C1CC1	-8.45%
COc1cc(C)c(S(=O)(=O)CC(=O)N(C)C2CC2)cc1OC	15.2%
CCc1oc(C(=O)N[C@@H]2c3ccccc3C[C@@H]2O)cc1C	-5.26%
COc1ccc(CN(C)Cc2c(C)noc2C)c(Br)c1OC	-8.43%
COCc1cccc(NCc2cccnc2)c1	-10.4%
COc1ccc(CN(C)Cc2c(C)noc2C)c(Cl)c1OC	-8.81%
CCCN1CCC(N(C)CCC(=O)Nc2ccccc2SC)CC1	1.62%
O=C1CCCN1CCN1CCC(c2ccn[nH]2)CC1	-7.63%
Cc1nc(-c2ccc(CC(=O)N3CCN(C(=O)C(C)C)CC3)cc2)cs1	-1.97%
Cc1nc(-c2ccc(CC(=O)N3CCN(C(=O)C4CC4)CC3)cc2)cs1	-1.62%
CC(=O)N1CCC(NC(=O)c2cc(Cl)ccc2-n2cnnn2)CC1	-6.61%
O=C(NC1CCN(C2CC2)CC1)c1cc(Cl)ccc1-n1cnnn1	8.23%

SMILES	cytotoxicity at 70.5 h
COc1ccc(C2CCCN2C(=O)c2ccc(=O)n(C)c2)cc1OC (centres undefined)	-6.18%
COc1cccc(CNCc2c(C)nc3sc(C)cn23)c1OC	-1.69%
Cn1ccnc1CCNS(=O)(=O)c1ccc(Br)cc1	9.92%
CC1CN(C(=O)C2(c3cccc(F)c3)CCOCC2)CCO1 (centres undefined)	-3.81%
O=C(c1ccc(CN2CCCC2)cc1)N1CCCC(n2cccn2)C1 (centres undefined)	-5.06%
CN(C)Cc1ccc(C(=O)N2CCCC(n3cccn3)C2)cc1 (centres undefined)	8.2%
CCN(CC)C(=O)CCNC(=O)c1c[nH]c2ccc(OC)cc12	1.48%
CSc1ccc(CNC2(c3ccc(F)cc3)CCOCC2)cc1	-3.89%
CC(=O)N1CCC(NC(=O)c2cc(Cl)ccc2O)CC1	-4.41%
Cc1nccn1CCCC(=O)Nc1nc(C(C)C)nn1C	10.2%
Cc1nc(CNC(=O)NCCC2=CCCC2)oc1C	7.64%
CCc1nc2n(n1)CC(NCc1cn(C)nc1-c1cccnc1)CC2 (centres undefined)	-4.07%
CCc1n[nH]c(C2CN(CC(=O)N(C)Cc3ccco3)CCO2)n1 (centres undefined)	-11.1%
O=C1CCCN1CCN1CCCC(c2ccn[nH]2)C1 (centres undefined)	27.7%
O=C(NCCNS(=O)(=O)c1cccc(Cl)c1)C1CCCO1 (centres undefined)	6.97%
Cc1nnc(CSc2ccc(C(F)(F)F)cn2)o1	2.72%
Cc1noc(CSc2ccc(C(F)(F)F)cn2)n1	-6.64%
COCCS(=O)(=O)Cc1nnnn1-c1ccccc1	-2.53%
COc1ccnc(N2CCN(Cc3ncc(-c4ccccc4)o3)CC2)n1	4.14%
CC(C(=O)N1CCN(CCOc2ccccc2)CC1)n1cncn1 (centres undefined)	9.32%
CCn1cnnc1CNC(=O)N(C)Cc1cccc(Cl)c1Cl	-6.25%
CNS(=O)(=O)c1ccc(CNC(=O)Nc2ccccn2)s1	3.18%
Cc1n[nH]c(C)c1CNC(=O)NC1CCCCC1	-8.57%
Cc1noc(C)c1CN(C)Cc1csc(-c2ncccn2)n1	-3.82%

SMILES	cytotoxicity at 70.5 h
CC(C)(C)OC(=O)N1CCC(NC2CCS(=O)(=O)C2)CC1 (centres undefined)	-8.07%
O=C(NCCCC(=O)N1Cc2ccccc2C1)NCc1cccnc1	-0.375%
CCN(CC)C(=O)Nc1ccc(N2CCSCC2)cc1C	8.14%
O=C(NCCCC(=O)N1Cc2ccccc2C1)NCc1nccs1	-5.34%
Cc1csc(C2(NC(=O)NCCN3CCOCC3)CCCC2)n1	-7.84%
O=C(NCC1CCC2(CC1)OCCO2)c1ccncc1F	-3.09%
Cc1c(CS(C)(=O)=O)cccc1NCC1CCCCC1	7.16%
Cc1cc(C)nc(NC2CC(=O)N(C(C)(C)C)C2)n1 (centres undefined)	7.77%
Cc1c(CS(C)(=O)=O)cccc1NCCCC1CCCC1	-7.83%
Cc1cc(N2CCSCC2)ccc1NC(=O)N(CCO)C1CC1	-5.59%
Cc1nnc(C(C)NCC2(c3ccc(F)cc3)CCCCC2)o1 (centres undefined)	-5.27%
Cc1noc(C)c1CN1CCC(c2nc3cc(Cl)ccc3o2)CC1	-14.6%
CS(=O)(=O)NCCC1CCCCN1C(=O)NCCc1ccccc1 (centres undefined)	17.9%
CC(CNC(=O)c1cc(Cl)ccc1I)N1CCCC1 (centres undefined)	-17.1%
CCOc1cccc(C(C)NC(=O)N2CCC3(CC2)OCCO3)c1 (centres undefined)	-13.2%
COc1cccc(C(=O)NS(=O)(=O)c2cncc(Br)c2)c1OC	-12.4%
CCC(O)CN1CCN(C(=O)CN(C)c2ccc(Cl)cn2)CC1 (centres undefined)	-5.06%
Cc1nnc(C(C)NCC2(c3ccc(Cl)cc3)CCOCC2)o1 (centres undefined)	-18.1%
Cc1cc(C)c2c(OCC(=O)NCC(O)C(F)(F)F)nn(C)c2n1 (centres undefined)	-15.2%
Cc1noc(C)c1CN(C)C(=O)Nc1cnn(CC2CCCO2)c1 (centres undefined)	-16.8%
CCc1cnc(CN(C)C(=O)Nc2cnn(CC3CCCO3)c2)s1 (centres undefined)	-4.76%
CCS(=O)(=O)CCSc1cccc(C#N)c1	-23.7%
CCCS(=O)(=O)CCSc1cccc(C#N)c1	-11.2%
Cn1cc(Br)c(=O)c(NS(=O)(=O)c2ccc(Cl)cc2)c1	-18.4%

SMILES	cytotoxicity at 70.5 h
CC(CNC(=O)c1ccc(Cl)cc1F)N1CCCC1 (centres undefined)	-16.4%
CC(O)CN1CCN(C(=O)CN(C)c2ccc(C#N)cn2)CC1 (centres undefined)	10.3%
Cc1cccc(C2(CNC(C)c3nnc(C)o3)CCCC2)c1 (centres undefined)	-6.44%
Cc1cc(CN2CCN(C(=O)CCc3ccco3)CC2)on1	-9.48%
CC(=O)N1CCCN(C(=O)CN(C)c2ccc(Cl)cn2)CC1	10.7%
Cn1ccnc1CNc1c(F)cccc1-n1cccn1	-7.82%
COc1ccc(CCNC(=O)Nc2cc(C)nn2C)cc1	-2.92%
O=C(CCc1ccccc1Br)NCC(=O)NCc1ccccc1	-7.06%
COc1ccc(CN(C)C(=O)NC(C)c2nncn2C)cc1F (centres undefined)	-6.21%
CCN(CC)c1ccc(NC(=O)NC(C)Cn2cccn2)cn1 (centres undefined)	-6.74%
O=C(c1ccn(-c2cccc(F)c2)n1)N1CCN(CC2CC2)CC1	-7.87%
Cc1cc(NC(=O)NCC(c2ccsc2)N(C)C)n(C)n1 (centres undefined)	-10.2%
CC(NC(=O)N(C)Cc1cnn(C)c1)c1nncn1C (centres undefined)	-2.09%
Cc1nnc2n1CCN(Cc1csc(-c3cnn(C)c3)n1)C2	-3.97%
CCc1nnc2n1CCN(Cc1csc(-c3ncccn3)n1)C2	-9.92%
COc1ccc(CNC(=O)Nc2ccc(CN3CCOC3=O)cc2)cc1	-0.36%
COCCNC(=O)Nc1ccc(CN2CCOC2=O)cc1	-7%
Cn1nc2c(cc1=O)CN(CC(=O)Nc1cc(C(C)(C)C)no1)CC2	13.4%
CCCn1nc2c(cc1=O)CN(CC(=O)Nc1cc(C)no1)CC2	-7.27%
Cc1ccc(S(=O)(=O)NC2CCC(=O)NC2)cc1Br (centres undefined)	-4.2%
Cn1cc(-c2csc(N3CCN(c4nccs4)CC3)n2)cn1	-0.763%
O=C(CSc1ccc2c(c1)OCCO2)NS(=O)(=O)c1cc(F)ccc1F	-7.36%
COCCCNC(=O)CN(C)Cc1ccc(F)cc1Cl	9.16%
